Non-standard residues stand in square brackets, D forms with d. No end group written: not given here.

This is an account of results in US20170007663A1, “METHODS AND COMPOSITIONS FOR TREATING AND […] DYSFUNCTION” (CORNELL UNIVERSITY, priority 2013, published 2017).

In series [1] the test system is several mammalian cell types. As to conditions: cited from earlier work.
Series [2] relates to cerebral metabolic rate of oxygen (CMRO). Nature of the series: Burst suppression model (Ching et al.) for cerebral metabolic rate of oxygen. The source says: A burst suppression model, as described in Ching et al., PNAS, 109(8): 3095-3100, (2012), will be used to determine the effect of D-Arg-2′,6′-Dmt-Lys-Phe-NH2 on CMRO. A range of 10^−9 to 10^−6 molar concentration of D-Arg-2′,6′-Dmt-Lys-Phe-NH2 will be assayed and compared to untreated and control peptide assays.

Series [3] deals with mu-opioid receptor (Homo sapiens, UniProt P35372). As to conditions: stated without a described test; cited from earlier work.
mu-opioid receptor, sequence (P35372 whole entry, species assumed): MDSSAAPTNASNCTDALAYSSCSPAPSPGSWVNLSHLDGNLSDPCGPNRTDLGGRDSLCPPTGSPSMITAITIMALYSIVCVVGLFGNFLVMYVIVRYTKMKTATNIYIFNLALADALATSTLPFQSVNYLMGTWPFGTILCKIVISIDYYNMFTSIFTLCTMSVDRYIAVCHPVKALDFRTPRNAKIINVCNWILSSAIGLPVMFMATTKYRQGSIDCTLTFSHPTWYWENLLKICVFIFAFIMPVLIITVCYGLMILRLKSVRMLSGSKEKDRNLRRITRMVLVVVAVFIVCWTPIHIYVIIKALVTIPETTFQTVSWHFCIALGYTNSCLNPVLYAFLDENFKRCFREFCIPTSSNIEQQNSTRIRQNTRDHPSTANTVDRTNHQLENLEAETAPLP

For the substance 2′,6′-Dmt-D-Arg-Phe-Lys-NH2, the “penetration of the plasma membrane” value in series [1] is recorded as “readily penetrates the plasma membrane of several mammalian cell types in an energy-independent manner”.
Consider D-Arg-2′,6′-Dmt-Lys-Phe-NH2, for which the CMRO entry in series [2] (10^−9 to 10^−6 molar, compared to untreated and control peptide assays) is on record as “increase in CMRO”. Moreover, in series [2] (burst suppression model, FIG. 1), the “cerebral metabolism / neuronal cellular and network function” value was “increase in cerebral metabolism and/or a restoration of neuronal cellular and network function”. For the same substance, the “mu-opioid receptor agonist activity” value in series [3] is “does not have mu-opioid receptor agonist activity”.
For F[dR]FK-NH2, in series [3], the “mu-opioid receptor agonist activity” value is on record as “does not have mu-opioid receptor agonist activity”.
Tyr-D-Arg-Phe-Lys-NH2: in series [3], the “mu-opioid receptor agonist activity” value is on record as “has mu-opioid receptor agonist activity”.
